{"source": "patent US20150105429A1", "about": "“BENZYL SULFONAMIDE DERIVATIVES AS RORC MODULATORS” (Genentech, Inc., priority 2011, published 2015)", "data": [{"biological_target": "T1, RORc ligand binding domain (Homo sapiens, UniProt P51449)", "T1 construct": "host or cells: E. coli", "T1 sequence (P51449 269-508 limits assumed)": "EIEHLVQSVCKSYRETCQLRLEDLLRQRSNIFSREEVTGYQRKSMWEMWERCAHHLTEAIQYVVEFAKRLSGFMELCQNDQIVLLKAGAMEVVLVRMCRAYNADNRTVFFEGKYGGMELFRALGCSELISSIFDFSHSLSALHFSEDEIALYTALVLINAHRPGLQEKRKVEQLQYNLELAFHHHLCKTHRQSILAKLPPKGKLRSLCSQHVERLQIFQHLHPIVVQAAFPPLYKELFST", "assay": "In Vitro RORc Ligand Binding Assay", "details": "radioligand 25-[3H]hydroxycholesterol 6 nM; 0.6 ug/mL RORc receptor; 3 h at 25° C.; read-out: IC50 values (micromolar) for RORc affinity", "method": "This assay was used to determine a compound's potency in inhibiting activity of RORc by determining, Kiapp, IC50, or percent inhibition values.\nOn day of the assay, 100 uL of 0.05% CHAPS (in deionized H2O) was added to all wells of the GFB Unifilter plate and allowed soak for 1 h. A wash buffer of 50 mM HEPES (pH 7.4), 150 mM NaCl, and 5 mM MgCl2 was prepared to wash the filter plate. To prepare an assay buffer, BSA was added to the wash buffer to reach 0.01% and DTT was added to reach 1 mM.\nThe 20× compound stocks were diluted in DMSO with Assay Buffer 4-fold to reach 5× the final test concentration in 25% DMSO (10 uL compound+30 uL Assay Buffer). Solutions were mixed by aspiration several times with a pipette set on 50 uL volume. For the assay, 10 uL of 5× compound stock solutions in 25% DMSO were added to the assay plate in duplicate.\nFor two point screening, 10 mM stock compound solutions were diluted in DMSO to obtain 200 uM (20× the high test concentration) and then diluted 10-fold further to reach 20 uM (20× the low test concentration). The 20× stocks were diluted 4-fold with Assay Buffer (10 uL compound+30 uL Assay Buffer) to reach 5× the test concentrations (50 uM and 5 uM) and 10 uL were added to two assay plates for the duplicate wells. With each concentration tested on 2 plates, each set of 80 compounds used 4 assay plates (1 uM and 10 uM, with n=2).\nFor 25-hydroxycholesterol in 25% DMSO/75% Assay Buffer; 10 uL per well was used for NSB samples. Wells for Total Binding and No Receptor sample determination contained 10 uL of 25% DMSO/75% Assay Buffer per well.\nRadioligand (25-[^3H]hydroxycholesterol) Preparation\nAdded 20 uL to all wells to reach 6 nM final in the assay.\nStock receptor solution was diluted in assay buffer to obtain 1.5 ug/mL in Assay Buffer. 20 uL was added to all wells. For No R samples, 20 uL Assay Buffer was substituted for receptor solution.\nAssay plates were 96-well polypropylene V-bottom plates. 10 uL of 5× compound in 25% DMSO/75% Assay Buffer was added to Test wells. 10 uL of 25% DMSO/75% Assay Buffer was added to Total Binding or No Receptor wells. 10 uL of 5 uM 25-hydroxycholesterol in 25% DMSO/75% Assay Buffer was added to NSB wells. […] 20 uL of 1.5 ug/mL RORc receptor was added to wells (or 40 uL Assay Buffer to No R wells). Following addition to the wells, the plates were incubated 3 h at 25° C.\nUsing a Packard Filtermate Harvester, the filter plates were washed 4 times following transfer of the incubated samples. Plates were dry-filtered completely (2 h at 50° C. or overnight at room temperature). 50 uL Microscint 0 was added to all wells and read on Topcount protocol Inverted.\nFinal concentrations were as follows: 50 mM HEPES buffer (pH 7.4); 150 mM NaCl; 1 mM DTT; 5 mM MgCl2; 0.01% BSA; 5% DMSO; 0.6 ug/mL RORc receptor; 6 nM 25-[^3H]hydroxycholesterol. For NSB wells, 1 uM 25-hydroxycholesterol was also present.", "units": {"IC50": "µM"}, "values": [{"smiles": "Cc1cc(CN(CC(C)C)S(=O)(=O)Cc2ccccc2)ccc1-c1ccc(S(C)(=O)=O)cc1", "note": "[Compound 24, N-Isobutyl-N-(4′-methanesulfonyl-2-methyl-biphenyl-4-ylmethyl)-C-phenyl-methanesulfonamide]", "IC50": 0.011}, {"smiles": "Cc1cc(-c2ccc(S(C)(=O)=O)cc2)ccc1CN(CC(C)C)S(=O)(=O)Cc1ccccc1", "note": "[Compound 25, N-Isobutyl-N-(4′-methanesulfonyl-3-methyl-biphenyl-4-ylmethyl)-C-phenyl-methanesulfonamide]", "IC50": 0.057}, {"smiles": "CC(C)CN(Cc1ccc(-c2cccc(S(C)(=O)=O)c2)s1)S(=O)(=O)c1cccc(Cl)c1", "note": "[Compound 26, 3-Chloro-N-isobutyl-N-[5-(3-methanesulfonyl-phenyl)-thiophen-2-ylmethyl]-benzenesulfonamide]", "IC50": 0.188}, {"smiles": "CC(C)CN(Cc1ccc(-c2cccc(S(C)(=O)=O)c2)s1)S(=O)(=O)c1ccccc1C#N", "note": "[Compound 27, 2-Cyano-N-isobutyl-N-[5-(3-methanesulfonyl-phenyl)-thiophen-2-ylmethyl]-benzenesulfonamide]", "IC50": 3.7}, {"smiles": "CC(C)CN(Cc1ccc(-c2cccc(S(C)(=O)=O)c2)s1)S(=O)(=O)c1ccccc1", "note": "[Compound 28, N-Isobutyl-N-[5-(3-methanesulfonyl-phenyl)-thiophen-2-ylmethyl]-benzenesulfonamide]", "IC50": 0.476}, {"smiles": "CC(C)CN(Cc1ccc(-c2cccc(S(C)(=O)=O)c2)s1)S(=O)(=O)Cc1ccccc1F", "note": "[Compound 29, C-(2-Fluoro-phenyl)-N-isobutyl-N-[5-(3-methanesulfonyl-phenyl)-thiophen-2-ylmethyl]-methanesulfonamide]", "IC50": 1.5}, {"smiles": "CC(C)CN(Cc1ccc(-c2cccc(S(C)(=O)=O)c2)s1)S(=O)(=O)Cc1ccc(F)cc1", "note": "[Compound 30, C-(4-Fluoro-phenyl)-N-isobutyl-N-[5-(3-methanesulfonyl-phenyl)-thiophen-2-ylmethyl]-methanesulfonamide]", "IC50": 1.4}, {"smiles": "CC(C)CN(Cc1ccc(-c2cccc(S(C)(=O)=O)c2)s1)S(=O)(=O)Cc1cccc(F)c1", "note": "[Compound 31, C-(3-Fluoro-phenyl)-N-isobutyl-N-[5-(3-methanesulfonyl-phenyl)-thiophen-2-ylmethyl]-methanesulfonamide]", "IC50": 1.3}, {"smiles": "Cc1n[nH]c(C)c1S(=O)(=O)N(Cc1ccc(-c2cccc(S(C)(=O)=O)c2)s1)CC(C)C", "note": "[Compound 32, 3,5-Dimethyl-1H-pyrazole-4-sulfonic acid isobutyl-[5-(3-methanesulfonyl-phenyl)-thiophen-2-ylmethyl]-amide]", "IC50": 2.5}, {"smiles": "CC(C)CN(Cc1ccc(-c2cccc(S(C)(=O)=O)c2)s1)S(=O)(=O)c1cccc(C#N)c1", "note": "[Compound 33, 3-Cyano-N-isobutyl-N-[5-(3-methanesulfonyl-phenyl)-thiophen-2-ylmethyl]-benzenesulfonamide]", "IC50": 2.4}, {"smiles": "CCn1cc(-c2ccc(CN(CC(C)C)S(=O)(=O)Cc3ccccc3)s2)cn1", "note": "[Compound 36, N-[5-(1-Ethyl-1H-pyrazol-4-yl)-thiophen-2-ylmethyl]-N-isobutyl-C-phenyl-methanesulfonamide]", "IC50": 0.598}, {"smiles": "CC(C)CN(Cc1ccc(-c2cccnc2)s1)S(=O)(=O)Cc1ccccc1", "note": "[Compound 37, N-Isobutyl-C-phenyl-N-(5-pyridin-3-yl-thiophen-2-ylmethyl)-methanesulfonamide]", "IC50": 1.7}, {"smiles": "CC(C)CN(Cc1ccc(-c2ccncc2)s1)S(=O)(=O)Cc1ccccc1", "note": "[Compound 38, N-Isobutyl-C-phenyl-N-(5-pyridin-4-yl-thiophen-2-ylmethyl)-methanesulfonamide]", "IC50": 0.614}, {"smiles": "CC(C)CN(Cc1ccc(-c2cccc(C(N)=O)c2)s1)S(=O)(=O)Cc1ccccc1", "note": "[Compound 41, 3-{5-[(Isobutyl-phenylmethanesulfonyl-amino)-methyl]-thiophen-2-yl}-benzamide]", "IC50": 1.4}, {"smiles": "CC(C)CN(Cc1ccc(-c2cccc(C(=O)N(C)C)c2)s1)S(=O)(=O)Cc1ccccc1", "note": "[Compound 43, 3-{5-[(Isobutyl-phenylmethanesulfonyl-amino)-methyl]-thiophen-2-yl}-N,N-dimethyl-benzamide]", "IC50": 2.4}, {"smiles": "CC(C)CN(Cc1ccc(-c2cncc(S(C)(=O)=O)c2)s1)S(=O)(=O)Cc1ccccc1", "note": "[Compound 44, N-Isobutyl-N-[5-(5-methanesulfonyl-pyridin-3-yl)-thiophen-2-ylmethyl]-C-phenyl-methanesulfonamide]", "IC50": 2.5}, {"smiles": "CC(C)CN(Cc1ccc(-c2cnn(C)c2)s1)S(=O)(=O)Cc1ccccc1", "note": "[Compound 45, N-Isobutyl-N-[5-(1-methyl-1H-pyrazol-4-yl)-thiophen-2-ylmethyl]-C-phenyl-methanesulfonamide]", "IC50": 0.612}, {"smiles": "CC(C)CN(Cc1ccc(-c2ccnc(N)c2)s1)S(=O)(=O)Cc1ccccc1", "note": "[Compound 46, N-[5-(2-Amino-pyridin-4-yl)-thiophen-2-ylmethyl]-N-isobutyl-C-phenyl-methanesulfonamide]", "IC50": 1.2}, {"smiles": "Cc1n[nH]c(C)c1-c1ccc(CN(CC(C)C)S(=O)(=O)Cc2ccccc2)s1", "note": "[Compound 49, N-[5-(3,5-Dimethyl-1H-pyrazol-4-yl)-thiophen-2-ylmethyl]-N-isobutyl-C-phenyl-methanesulfonamide]", "IC50": 0.377}, {"smiles": "CC(C)CN(Cc1ccc(-c2cncc(C#N)c2)s1)S(=O)(=O)Cc1ccccc1", "note": "[Compound 50, N-[5-(5-Cyano-pyridin-3-yl)-thiophen-2-ylmethyl]-N-isobutyl-C-phenyl-methanesulfonamide]", "IC50": 3.1}, {"smiles": "CNC(=O)c1ccc(-c2ccc(CN(CC(C)C)S(=O)(=O)Cc3ccccc3)s2)cn1", "note": "[Compound 51, 5-{5-[(Isobutyl-phenylmethanesulfonyl-amino)-methyl]-thiophen-2-yl}-pyridine-2-carboxylic acid methylamide]", "IC50": 4.4}, {"smiles": "CC(=O)Nc1ccc(-c2ccc(CN(CC(C)C)S(=O)(=O)Cc3ccccc3)s2)cn1", "note": "[Compound 52, N-(5-{5-[(Isobutyl-phenylmethanesulfonyl-amino)-methyl]-thiophen-2-yl}-pyridin-2-yl)-acetamide]", "IC50": 3}, {"smiles": "CC(C)N(Cc1ccc(-c2ccc(S(C)(=O)=O)cc2)s1)S(=O)(=O)Cc1ccccc1", "note": "[Compound 56, N-Isopropyl-N-[5-(4-methanesulfonyl-phenyl)-thiophen-2-ylmethyl]-C-phenyl-methanesulfonamide]", "IC50": 0.195}, {"smiles": "COCCN(Cc1ccc(-c2ccc(S(C)(=O)=O)cc2)s1)S(=O)(=O)Cc1ccccc1", "note": "[Compound 57, N-[5-(4-Methanesulfonyl-phenyl)-thiophen-2-ylmethyl]-N-(2-methoxy-ethyl)-C-phenyl-methanesulfonamide]", "IC50": 5.1}, {"smiles": "CCN(Cc1ccc(-c2ccc(S(C)(=O)=O)cc2)s1)S(=O)(=O)Cc1ccccc1", "note": "[Compound 58, N-Ethyl-N-[5-(4-methanesulfonyl-phenyl)-thiophen-2-ylmethyl]-C-phenyl-methanesulfonamide]", "IC50": 3.1}, {"smiles": "CC(C)CN(Cc1cc(-c2ccc(S(C)(=O)=O)cc2)cs1)S(=O)(=O)Cc1ccccc1", "note": "[Compound 59, N-Isobutyl-N-[4-(4-methanesulfonyl-phenyl)-thiophen-2-ylmethyl]-C-phenyl-methanesulfonamide]", "IC50": 0.278}, {"smiles": "CC(C)CN(Cc1ccc(-c2cccc(S(C)(=O)=O)c2)s1)S(=O)(=O)C1CCCC1", "note": "[Compound 60, Cyclopentanesulfonic acid isobutyl-[5-(3-methanesulfonyl-phenyl)-thiophen-2-ylmethyl]-amide]", "IC50": 1.8}, {"smiles": "Cc1nn(C)c(C)c1S(=O)(=O)N(Cc1ccc(-c2cccc(S(C)(=O)=O)c2)s1)CC(C)C", "note": "[Compound 61, 1,3,5-Trimethyl-1H-pyrazole-4-sulfonic acid isobutyl-[5-(3-methanesulfonyl-phenyl)-thiophen-2-ylmethyl]-amide]", "IC50": 3.6}]}]}
